What is called Kd is the free concentration of one partner at which half of the binding sites on the other are occupied at equilibrium, for simple one-to-one binding. Low readings indicate tighter binding, high ones weaker binding.

The record followed here is patent USRE35904E, “Method and probes for detecting nucleoside transporter and method for producing the probes” (Governors of the University of Alberta, priority 1995, dated 1998).

The target of assay [1] is T1, es nucleoside transporter (Mus musculus, UniProt Q9JIM1).
T1 construct: endogenous in cells; host or cells: L1210/B23.1 mouse leukemia cells
T1 sequence (Q9JIM1 1-460): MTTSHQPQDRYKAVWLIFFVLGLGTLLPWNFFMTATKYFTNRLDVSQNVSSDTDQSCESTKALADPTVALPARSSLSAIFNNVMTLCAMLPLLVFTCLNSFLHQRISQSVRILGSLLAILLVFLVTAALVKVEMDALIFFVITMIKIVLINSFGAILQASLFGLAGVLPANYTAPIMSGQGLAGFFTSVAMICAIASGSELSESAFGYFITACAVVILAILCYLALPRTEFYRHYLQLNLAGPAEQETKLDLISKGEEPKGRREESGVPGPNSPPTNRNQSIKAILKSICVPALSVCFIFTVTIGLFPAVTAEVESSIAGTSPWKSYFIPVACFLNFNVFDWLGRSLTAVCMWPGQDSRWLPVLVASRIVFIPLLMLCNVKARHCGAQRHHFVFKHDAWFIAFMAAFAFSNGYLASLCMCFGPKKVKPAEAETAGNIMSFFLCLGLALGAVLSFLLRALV
In words: [3H]NBMPR equilibrium binding to L1210/B23.1 cells and its inhibition by SAENTA-fluorescein probes. Particulars: 22°; for Ki: replots of Kd(app)/Bmax versus [probe], read-out: Ki (mean ± S.D.).

Assay [2] addresses T2, es nucleoside transporter (Sus scrofa, UniProt A0A287B2T6).
T2 construct: immediately processed by conventional methods for recovery of erythrocytes; tissue Gainers, Edmonton, Alberta, Canada (blood of domestic pigs); host or cells: pig erythrocytes, unsealed ghosts
The assay can be described thus: Inhibition of site-specific [3H]NBMPR binding to unsealed pig erythrocyte ghosts. Particulars: for IC50: 2 nM [3H]NBMPR, 20 min, 22° C., pH 7.4, read-out: IC50 for inhibition of site-bound [3H]NBMPR; for inhibition of NBMPR binding to the nucleoside transporter: result in words. As for the experimental part: Blood from adult domestic pigs (Gainers, Edmonton, Alberta, Canada) was collected into 0.2 vol. of anticoagulant solution (90 mM-sodium citrate/16 mM-citric acid/16 mM-monosodium phosphate/2 mM-adenine/12 mM-inosine) and immediately processed by conventional methods for recovery of erythrocytes.
Unsealed ghosts were prepared at 4° C. by the procedure of Steck & Kant, (1974), Methods in Enzymology, vol. 31, pp. 172-180, modified by the inclusion of 0.1 mM phenylmethane sulphonyl fluoride, and stored at -70° C.
NBMPR was prepared as described by Paul, Chen & Paterson (1975), J. Med Chem., vol. 18, pp. 968-973. [G-^3 H]NBMPR (23 Ci/mmol), obtained from Moravek Biochemicals, Brea, CA., U.S.A., was purified by using a Spheri-10 RP18 100 mm×4.6 mm column (Brownlee Labs, Santa Clara, CA,. U.S.A.), eluted with a methanol/water gradient.
Binding to unsealed ghosts was determined by a filtration assay, as described by Agbanyo, Cass & Paterson (1988) Mol. Pharmacol., vol. 33, pp. 332-337. Assay mixtures (final volume, 1.2 ml; two samples per condition) contained 2 nM-[^3 H]NBMPR, graded concentrations of test compound and unsealed ghosts (10 μg of protein/ml) in 5 mM-sodium phosphate buffer, pH 7.4, at 22° C., and, for determination of non-specific binding, 5 μM non-radioactive NBMPR was present. After a 20 min incubation at 22° C., membrane material from 1 ml portions of assay mixtures was collected by vacuum filtration on Whatman GF/C microfibre filters, which were then rapidly washed three times with 2 ml portions of ice-cold 5 mM-sodium phosphate buffer. The filters were placed in scintillation vials and assayed for radioactivity after a 16 h incubation in 8 ml of Triton X-100-based scintillation fluid as described by Pande (1976) Anal. Biochem., vol. 74, pp. 25-34. Protein was determined by the bicinchoninic acid method of Smith et al. (1985) Anal. Biochem., vol. 150, pp. 76-85.
Correction for non-specific binding was determined by performing the assay in the presence of 5 μM-non radioactive NBMPR. Replicate mixtures contained ghosts, 2 nM-[^3 H]NBMPR, graded concentrations of SAENTA or acetyl SAENTA (prepared as in Example 1) and, in mixtures used for non-specific binding, 5 μM-non radioactive NBMPR. Values for [^3 H]NBMPR specifically bound in the presence of inhibitor are expressed as percentages of that bound in its absence.
IC50 values were determined from plots of % site-bound NBMPR in presence of test compound against concentration of test compound.

In assay [3] the target is T1, es nucleoside transporter. The assay can be described thus: Flow cytometric staining of L1210/B23.1 cells (es nucleoside transporter-expressing) by SAENTA-fluorescein probe. Type of assay: cell-based. As to conditions: 40 nM 5-(SAENTA-X2)-fluorescein, 10 min, 4° C., pH 8.0, FIG. 8. As for the experimental part: Flow cytometric measurements of binding of .[.SAENTA-x2 -fluorescein.]. .Iadd.SAENTA-X2-fluorescein .Iaddend.prepared as in Example 3 was carried out as in Example 4 using two clonal lines of cultured mouse leukemia L 1210 cells, L 1210/B23.1 and L 1210/MA-27.1. L 1210/B23.1 expresses NBMPR binding sites and nuclesoside transporter activity whereas L 1210/MA-27.1 cells lack both of these features.
Staining conditions were chosen to minimise non-specific fluorescence signals from L 1210/MA-27.1 cells treated with the nucleoside.
Cells were exposed for 10 min at 4° C. to phosphate-buffered (pH 8.0) salts medium containing 40 nM .[.5(SAENTA-xx2)fluorescein.]. .Iadd.5-(SAENTA-X2)-fluorescein .Iaddend.prior to flow cytometric analysis in a BD FACSan instrument; 10^5 cells were analysed. Cells in replicate assay mixtures were also exposed for 5 min at 22° C. to medium containing 10 μM NBMPR and then for 10 min at 4° C. to medium containing both NBMPR and .[.5-SAENTA-x2)-fluorescein.]. .Iadd.5-(SAENTA-X2)-fluorescein.Iaddend..
(a) Clonal lines of mouse leukemia cells were exposed for 10 min at 4° C. to phosphate buffered (pH 8.0) saline containing […] .[.5-(SAENTA-x2)-fluorescein.]. .Iadd.5-(SAENTA-X2)-fluorescein .Iaddend.(prepared as in Example 3) prior to flow cytometric analysis in a BD FACScan instrument; 10^4 cells were analysed. Cells in replicate mixtures were also exposed for 5 min at 22° C. to medium containing 10 μM NBMPR and then for 10 min at 4° C. to medium containing both NBMPR and .[.5-(SAENTA-x2)-fluorescein.]. .Iadd.5-(SAENTA-X2)-fluorescein.Iaddend.. L 1210/B23.1 cells express the es nucleoside transport system whereas L 1210/MA-27.1 cells lack that activity.
(In general: In flow cytometry, cells or beads pass a laser one at a time.)

The target of assay [4] is T3, nucleoside transporter (Homo sapiens, UniProt Q99808).
T3 construct: The human leukaemic cell line RC2a, of myelomonocytic origin; endogenous in cells; host or cells: RC2a human leukaemic (myelomonocytic) cells
T3 sequence (Q99808 1-456): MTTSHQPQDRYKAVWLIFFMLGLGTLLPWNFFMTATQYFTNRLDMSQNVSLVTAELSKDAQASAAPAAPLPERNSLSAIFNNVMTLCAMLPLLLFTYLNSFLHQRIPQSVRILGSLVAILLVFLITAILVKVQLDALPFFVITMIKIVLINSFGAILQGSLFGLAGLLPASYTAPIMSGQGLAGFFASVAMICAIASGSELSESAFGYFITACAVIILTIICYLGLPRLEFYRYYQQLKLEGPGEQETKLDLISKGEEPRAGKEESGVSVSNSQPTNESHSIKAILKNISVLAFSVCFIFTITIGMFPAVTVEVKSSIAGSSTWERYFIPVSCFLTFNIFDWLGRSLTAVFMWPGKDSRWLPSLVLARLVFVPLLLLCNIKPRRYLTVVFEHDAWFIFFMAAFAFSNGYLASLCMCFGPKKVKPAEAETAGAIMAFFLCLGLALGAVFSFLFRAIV
In words: Inhibition of [3H]NBMPR binding to RC2a leukaemic cells. As to conditions: 30 min, 37° C., FIG. 5; read-out: half-maximal inhibition of site-specific [3H]NBMPR binding.
Description: [^3 H]NBMPR from Moravek Biochemicals Brea, CA, U.S.A. was purified by reverse phase HPLC using methanol-water as solvent. Unlabelled NBMPR was supplied by Sigma (St. Louis, MO, U.S.A.). [^3 H]Cytosine arabinoside (araC) and [^14 C]polyethylene glycol were obtained from Amersham, Buckinghamshire, England. Dilazep was a gift from Roche, Dee Why, Australia.
The free [^3 H]NBMPR concentration in the medium above the oil was also measured. Non-specific binding of [^3 H]NBMPR was measured in parallel incubations of cells treated for 5 min at 37° C. with 5 μM NBMPR before the addition of [^3 H]NBMPR. Specific binding was calculated by subtracting the amount of non-specific binding (determined in the presence of 5 μM unlabelled NBMPR) from total [^3 ]NBMPR binding in all analyses.

Assay [5] addresses T3, nucleoside transporter. In words: Equilibrium binding of SAENTA-fluorescein probe to RC2a cells by flow cytometry, with displacement by NBMPR or dilazep.
For assay [6], the target named is T3, nucleoside transporter. In words: Inhibition of [3H]cytosine arabinoside (araC) influx in RC2a leukaemic cells. Type of assay: cell-based. The protocol:
. Unlabelled NBMPR was supplied by Sigma (St. Louis, MO, U.S.A.). [^3 H]Cytosine arabinoside (araC) and [^14 C]polyethylene glycol were obtained from Amersham, Buckinghamshire, England. Dilazep was a gift from Roche, Dee Why, Australia. Incubations were carried out using imidazole-buffered saline (IBS; […], 5 mM KCl, 5 mM imidazole-Cl, 1 mM MgCl2 and 5 mM glucose, pH 7.4).
The human leukaemic cell line RC2a, of myelomonocytic origin (Bradley et al., 1982 Brit. J. Haematol., vol. 51, pp. 595-604) was maintained in RPMI 1640 medium containing 10% foetal calf serum, 2 mM glutamine, 20 mM HEPES (pH 7.4) (Flow Laboratories, Sydney, Australia) and 20 mg/l gentamycin sulphate (Roussell, Castle Hill, Australia). Cell densities were maintained below 5×10^5 /ml. Cells were collected by centrifugation and resuspended in buffered saline for assays.
Prior to measurement of [^3 H]araC uptake, RC2a leukaemic cells were treated at 20° C. for 10 min with graded concentrations (0-0.05 μM) of .[.SAENTA-x2 -fluorescein.]. .Iadd.SAENTA-X2-fluorescein .Iaddend.prepared as in Example 3. Treated cells (100 μl, 5×10^7 cells/ml) were added to [^3 H]araC (100 μl) in IBS medium in 1.5 ml centrifuge tubes to give a final araC concentration of 50 μM. [^3 H]araC uptake was ended 20 sec. later by the addition of 800 μl of ice-cold dilazep (750 μM) (Jamieson et al., 1989). Phthalate oil was added immediately and the tube spun at 8000 g for 2 min. Medium above the oil was aspirated, the tube walls washed, and the oil above the cell pellet removed. Pellets were solubilized using 0.5M NaOH and the [^3 H]araC contents were measured by liquid scintillation counting. […]
The ability of .[.SAENTA-x2 -fluorescein.]. .Iadd.SAENTA-X2-fluorescein .Iaddend.to inhibit influx of nucleoside was assessed in cultured RC2a leukaemic cells by treating the cells for 10 min with graded concentrations of .[.SAENTA-x2 -fluorescein.]. .Iadd.SAENTA-X2-fluorescein .Iaddend.(0 to 0.25 μM). Uptake rates of araC (50 μM) were then determined over 20 s at 20° C. as described above.

T2 sequence (A0A287B2T6 1-457): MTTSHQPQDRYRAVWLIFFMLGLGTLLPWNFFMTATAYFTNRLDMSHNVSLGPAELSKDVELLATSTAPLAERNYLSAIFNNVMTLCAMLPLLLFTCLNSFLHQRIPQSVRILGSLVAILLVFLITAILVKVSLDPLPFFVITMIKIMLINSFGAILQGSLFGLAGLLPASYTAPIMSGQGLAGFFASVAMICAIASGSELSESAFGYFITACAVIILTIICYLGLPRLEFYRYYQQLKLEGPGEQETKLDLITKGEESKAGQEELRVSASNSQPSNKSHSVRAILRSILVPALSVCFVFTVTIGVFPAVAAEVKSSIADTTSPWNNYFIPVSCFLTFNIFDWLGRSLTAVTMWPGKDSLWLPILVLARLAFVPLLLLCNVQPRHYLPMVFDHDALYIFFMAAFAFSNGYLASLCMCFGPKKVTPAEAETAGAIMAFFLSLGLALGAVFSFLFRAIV

For `O=C(CCCCCNC(=O)c1ccc2c(c1)C(=O)OC21c2ccc(O)cc2Oc2cc(O)ccc21)NCCSC[C@H]1O[C@@H](n2cnc3c(NCc4ccc([N+](=O)[O-])cc4)ncnc32)[C@H](O)[C@@H]1O` [5-(SAENTA-X8)-fluorescein, 5'-S-[2-(6-(Fluorescein-5-carboxamido)hexanoylamino)ethyl]-N^6-(4-nitrobenzyl)-5'-thioadenosine], the Ki in assay [1] stood at 0.8 ± 0.21 nM.

With `O=C1OC2(c3ccc(O)cc3Oc3cc(O)ccc32)c2cc(NC(=S)NCCSC[C@H]3O[C@@H](n4cnc5c(NCc6ccc([N+](=O)[O-])cc6)ncnc54)[C@H](O)[C@@H]3O)ccc21` [6-(SAENTA-X2)-fluorescein], in assay [1], the Ki was determined as 9.9 ± 2.8 nM.

As for `O=C(CCCCCNC(=O)c1ccc2c(c1)C1(OC2=O)c2ccc(O)cc2Oc2cc(O)ccc21)NCCSC[C@H]1O[C@@H](n2cnc3c(NCc4ccc([N+](=O)[O-])cc4)ncnc32)[C@H](O)[C@@H]1O` [6-(SAENTA-X8)-fluorescein, 5'-S-[2-(6-(Fluorescein-6-carboxamido)hexanoylamino)ethyl]-N^6-(4-nitrobenzyl)-5'-thioadenosine], the Ki in assay [1] was 1.7 ± 0.5 nM.

Compound `O=[N+]([O-])c1ccc(CSc2ncnc3c2ncn3C2OC(CO)C(O)C2O)cc1` (centres unmarked) [NBMPR, nitrobenzyl thioinosine, reference compound] gave a dissociation constant (Kd) in assay [1] (Scatchard analysis (LIGAND)) of 0.085 ± 0.015 nM.

As for `NCCSC[C@H]1O[C@@H](n2cnc3c(NCc4ccc([N+](=O)[O-])cc4)ncnc32)[C@H](O)[C@@H]1O` [SAENTA, 5'-S-(2-aminoethyl)-6-N-(4-nitrobenzyl)-5'-thioadenosine], in assay [2], the IC50 is 330 nM and the “inhibition of NBMPR binding to the nucleoside transporter” value was “strong inhibition”.

As to `O=C(O)c1cc(NC(=S)NCCSC[C@H]2O[C@@H](n3cnc4c(NCc5ccc([N+](=O)[O-])cc5)ncnc43)[C@H](O)[C@@H]2O)ccc1-c1c2ccc(=O)cc-2oc2cc(O)ccc12` [SAENTA-X2-fluorescein], in assay [3], the “distinction of L1210/B23.1 from L1210/MA-27.1 cells by cell staining” value is given as “able to distinguish clearly”. Moreover, the IC50 on nucleoside transporter [4] was 50 to 100 nM; at nucleoside transporter [6] (50 μM araC, 20° C., 10 min pretreatment) it was about 40 nM. Besides, on nucleoside transporter [5] (RC2a cells 1×10^5/ml, room temperature, n=3, ±1 SD, FIG. 7, read-out: concentration giving half-maximal binding (NBMPR-sensitive)), the EC50 is 6.2 ± 1 nM. For the same compound, the “time to equilibrium of cell bound fluorescence” value at nucleoside transporter [5] (all ligand concentrations, room temperature) was 10 min. On nucleoside transporter [5] (lowest ligand concentration, room temperature), the “time to equilibrium between bound and free probe” value was 10 min. Further, the “inhibition of influx of [3H]araC” value at nucleoside transporter [6] (50 μM araC, 20° C., 10 min exposure to 0.25 μM probe) was found to be 90%.

On to `CC(=O)NCCSC[C@H]1O[C@@H](n2cnc3c(NCc4ccc([N+](=O)[O-])cc4)ncnc32)[C@H](O)[C@@H]1O` [acetyl SAENTA], for which, in assay [2], the IC50 was found to be 76 nM and the “inhibition of NBMPR binding to the nucleoside transporter” value is listed as “strong inhibition”.

`COc1cc(C(=O)OCCCN2CCCN(CCCOC(=O)c3cc(OC)c(OC)c(OC)c3)CC2)cc(OC)c1OC` [dilazep, reference compound]: at nucleoside transporter [5] (2 μM dilazep versus 1 μM NBMPR), the “displacement of SAENTA-X2-fluorescein binding” value was “as effective as NBMPR”. Moreover, the “effectiveness in stopping araC influx” value on nucleoside transporter [6] (dilazep added to cells prior to [3H]araC) was “effectiveness of dilazep in stopping influx was confirmed”.
